Measurements: patent US9981923B2, “1,2,3 Triazole antifungal agents and preparation thereof” (COUNCIL OF SCIENTIFIC & INDUSTRIAL RESEARCH, priority 2014, dated 2018)
≈ marks a conversion by molar mass, not a printed value. Like-named read-outs stand apart in the source and are kept apart here.

How the values were obtained:
[1] = system: Aspergillus fumigatus MCC 1046; experiment: Antifungal susceptibility by microbroth dilution (CLSI); format: cell-based; conditions: Table 1, 48 h, >90% inhibition of growth
Procedure: (§1) The synthesized compounds were evaluated for antifungal susceptibility by microbroth dilution method according to the recommendations of the Clinical Laboratory Standards Institute (CLSI 2008). Briefly, appropriate amount of compounds were dissolved in dimethyl sulfoxide to get 100× final strength. The stock was then diluted 1:50 in RPMI/YPG medium and 200 μl from this was added to the first row of a 96-well microtitre plate. The compounds were serially diluted two fold in successive wells to get a range of 1-128 μg/ml. Fungal yeast cells (˜2×10^3 cfu/mL), freshly grown in YPG broth in logarithmic phase, were suspended in the medium and inoculated (100 μl) in the wells of the plate. For filamentous fungi, 2×10^4 spores/mL were added. The microtitre plate was incubated for 48 h, and the absorbance was measured at 600 nm by using microtitre plate reader to assess cell growth.

[2] = system: Cryptococcus neoformans ATCC 34664; experiment: as above; format: cell-based; conditions: Table 1, 48 h, >90% inhibition of growth
Procedure: as §1

[3] = system: Candida glabrata NCYC 388; experiment: as above; format: cell-based; conditions: Table 1, 48 h, >90% inhibition of growth
Procedure: as §1

[4] = system: Candida albicans ATCC 24433; experiment: as above; format: cell-based; conditions: Table 1, 48 h, >90% inhibition of growth, range 1-128 μg/ml
Procedure: as §1

[5] = system: Aspergillus niger ATCC 10578; experiment: as above; format: cell-based; conditions: Table 1, 48 h, >90% inhibition of growth
Procedure: as §1

[6] = system: Candida albicans ATCC 10231; experiment: Antifungal susceptibility by microbroth dilution (CLSI); format: cell-based; conditions: Table 1; 48 h, >90% inhibition of growth
Procedure: as §1

[7] = Aspergillus fumigatus, MCC1046, read-out: MIC
[8] = Cryptococcus neoformans, ATCC34664, read-out: MIC
[9] = Nakaseomyces glabratus, NCYC388, read-out: MIC
[10] = Candida albicans, ATCC24433, read-out: MIC
[11] = Aspergillus niger, ATCC10578, read-out: MIC

Compound	MIC [1, 7] [µg/mL]	MIC [2, 8] [µg/mL]	MIC [3, 9] [µg/mL]	MIC [4, 10] [µg/mL]	MIC [5, 11] [µg/mL]	melting point [°C]	also measured
Cc1cc(C)cc(C(O)c2cn(-c3cc(Cl)ccc3O)nn2)c1 (stereo not drawn) [Compound 1aa, 4-Chloro-2-(4-((3,5-dimethylphenyl)(hydroxy)methyl)-1H-1,2,3-triazol-1-yl)phenol]	64 (≈ 194 µM)	32 (≈ 97 µM)	32 (≈ 97 µM)	64 (≈ 194 µM)	64 (≈ 194 µM)	191 to 193	
Oc1ccc(Cl)cc1-n1cc(C(O)c2cc(C(F)(F)F)cc(C(F)(F)F)c2)nn1 (stereo not drawn) [Compound 1ba, 2-(4-((3,5-Bis(trifluoromethyl)phenyl)(hydroxy)methyl)-1H-1,2,3-triazol-1-yl)-4-chlorophenol]	> 128	16 (≈ 36.6 µM)	128 (≈ 292 µM)	128 (≈ 292 µM)	> 128	211 to 213	
Oc1ccc(Cl)cc1-n1cc(CC(O)c2ccccc2)nn1 (stereo not drawn) [Compound 1ea, 4-Chloro-2-(4-(2-hydroxy-2-phenylethyl)-1H-1,2,3-triazol-1-yl)phenol]	128 (≈ 405 µM)	> 128	128 (≈ 405 µM)	64 (≈ 203 µM)	64 (≈ 203 µM)	148 to 150	
Oc1cc(Cl)ccc1-n1cc(CC(O)c2ccccc2)nn1 (stereo not drawn) [Compound 1eb, 5-Chloro-2-(4-(2-hydroxy-2-phenylethyl)-1H-1,2,3-triazol-1-yl)phenol]						171 to 172	
Oc1ccc(Cl)cc1-n1cc(CC(O)c2cc(C(F)(F)F)cc(C(F)(F)F)c2)nn1 (stereo not drawn) [Compound 1ja, 2-(-4-(2-(3,5-Bis(trifluoromethyl)phenyl)-2-hydroxyethyl)-1,2,3-triazol-1-yl)-4-chlorophenol]						181 to 183	
Oc1cc(Cl)ccc1-n1cc(CC(O)c2cc(C(F)(F)F)cc(C(F)(F)F)c2)nn1 (stereo not drawn) [Compound 1jb, 2-(4-(2-(3,5-Bis(trifluoromethyl)phenyl)-2-hydroxyethyl)-1H-1,2,3-triazol-1-yl)-5-chlorophenol]						192 to 194	
CCC(O)(c1ccccc1)c1cn(-c2ccc(Cl)cc2O)nn1 (stereo not drawn) [Compound 2db]							MIC [1]: 128 µg/mL (≈ 388 µM); MIC [2]: 128 µg/mL (≈ 388 µM); MIC [3]: 64 µg/mL (≈ 194 µM); MIC [6]: 128 µg/mL (≈ 388 µM); MIC [4]: >128 µg/mL; MIC [5]: 128 µg/mL (≈ 388 µM)
CC(O)(Cc1cn(-c2ccc(Cl)cc2O)nn1)c1ccccc1 (stereo not drawn) [Compound 2fb, 5-Chloro-2-(4-(2-hydroxy-2-phenylpropyl)-1H-1,2,3-triazol-1-yl)phenol]						189 to 190	
CCCCC(O)(Cc1cn(-c2cc(Cl)ccc2O)nn1)c1ccccc1 (stereo not drawn) [Compound 2ha, 4-chloro-2-(4-(2-hydroxy-2-phenylhexyl)-1H-1,2,3-triazol-1-yl)phenol]						165 to 167	
CCCCC(O)(Cc1cn(-c2ccc(Cl)cc2O)nn1)c1ccccc1 (stereo not drawn) [Compound 2hb]							MIC [1]: >128 µg/mL; MIC [2]: 32 µg/mL (≈ 86.1 µM); MIC [3]: 64 µg/mL (≈ 172 µM); MIC [6]: >128 µg/mL; MIC [4]: 64 µg/mL (≈ 172 µM); MIC [5]: >128 µg/mL
Oc1ccc(Cl)cc1-n1cc(CC(O)(c2ccccc2)c2ccccc2)nn1 [Compound 2ia, 4-Chloro-2-(4-(2-hydroxy-2,2-diphenylethyl)-1H-1,2,3-triazol-1-yl)phenol]	128 (≈ 327 µM)	> 128	128 (≈ 327 µM)	128 (≈ 327 µM)	> 128	194 to 196	
Oc1cc(Cl)ccc1-n1cc(CC(O)(c2ccccc2)c2ccccc2)nn1 [Compound 2ib, 5-Chloro-2-(-4-(2-hydroxy-2,2-diphenylethyl)-1H-1,2,3-triazol-1-yl)phenol]						210 to 212	
